EP0381141B1, “Novel aryl- or heteroaryl-1-alkyl-pyrrole-2-carboxylic acid compounds useful in treating interleukin-1 mediated conditions” (MERRELL DOW PHARMACEUTICALS INC., priority 1989, dated 1990)

Test system: Interleukin-1 Secretion by Macrophages
Experiment: Ex vivo inhibition of interleukin-1 secretion by macrophages (LPS-stimulated peritoneal cells from orally dosed mice; IL-1 measured by thymocyte H3-thymidine incorporation)
Type: in vivo
Conditions: p.o. 3 times (40, 24 and 16 hours prior to sacrifice); for Interleukin-1 units/ml Mean ± Sem(n): 100 mg/kg, macrophage culture supernatant, unit = reciprocal of the dilution required to give 50% of maximal H3-thymidine incorporation; for inhibition at 100 mg/kg: Mus musculus, Macrophage, po, versus control group
Experimental: The interleukin-1 inhibitory properties of the compounds of this invention can readily be determined by standard and well known procedures.
Peritoneal cells from mice which had been orally dosed with 100 mg/kg of test compound 40, 24 and 16 hours prior to sacrifice, were collected by lavage, pooled and washed by centrifugation. The cells were resuspended in RPMI-1640 medium containing antibiotics, and plated. After 1 hour of incubation at 37°C, non-adherent cells were removed, and RPMI, with or without lipopolysaccharide, was added to each well. The presence of lipopolysaccharide will induce interleukin-1 secretion by macrophages. After incubation for 6 hours, the culture supernatant was collected, filtered and stored until assayed.
Mouse thymocytes were suspended in RPMI enriched with fetal bovine serum and 2-mercaptoethanol. Aliquots of cell suspension were incubated with an equal volume of dilutions of macrophage culture supernatant in the presence of a suboptimal amount of phytohemagglutinin for 72 hours in flat-bottom plates. Microcultures were pulsed with H³-thymidine for the last 16 hours and were harvested on glass fiber filters. H₃-thymidine will be incorporated into the DNA of actively proliferating cells. The radioactivity was determined by liquid scintillation counting, and interleukin-1 activity was expressed in units defined as the reciprocal of the dilution required to give 50% of maximal H³-thymidine incorporation.
Compounds were administered at a dosage of 100 mg/kg, p.o. 3 times (40, 24 and 16 hours prior to sacrifice). Compound 1: 1-(2-furanylmethyl)-1H-pyrrole-2-carboxylic acid Compound 2: 1-(phenylmethyl)-1Hpyrrole-2 -carboxylic acid Compound 3: 1-([1,1'-biphenyl]-4-ylmethyl)-1H -pyrrole-2-carboxylic acid

Question: How did the “Interleukin-1 units/ml Mean ± Sem(n)” value turn out when O=C(O)c1cccn1Cc1ccc(-c2ccccc2)cc1 [Compound 3, 1-([1,1'-Biphenyl]-4-ylmethyl)-1H-Pyrrole-2-Carboxylic Acid] was run?
Answer: 26.6 +/- 3.9 units/ml

Question: What about the inhibition at 100 mg/kg of the same compound?
Answer: 94.9%

Question: O=C(O)c1cccn1Cc1ccccc1 [Compound 2, 1-(phenylmethyl)-1H-pyrrole-2-carboxylic acid] was tested. Which “Interleukin-1 units/ml Mean ± Sem(n)” value did it give?
Answer: 171.3 +/- 7.9 units/ml

Question: What about the inhibition at 100 mg/kg of the same compound?
Answer: 67.4%

Question: What does the source list for O=C(O)c1cccn1Cc1ccco1 [Compound 1, 1-(2-furanylmethyl)-1H-pyrrole-2-carboxylic acid]?
Answer: Interleukin-1 units/ml Mean ± Sem(n): 10.2 +/- 3.4 units/ml; inhibition at 100 mg/kg: 93.2%
